The nature of the experiment: Antitrypanosomal Activity Assay: Antitrypanosomal activity was tested on T. brucei brucei bloodstream from parasites (strain¿Lister 427, VATMITat 1.2). Stock solutions of compounds (50 mM) were prepared in DMSO. Two fold serial dilutions of each compound (10 wells in each row) were prepared in 96 well plates in HMI111 medium (100 μl/well; quadruplicates; cf. also Hirumi et al., J. Parasitol. 75 (1989), 985-989). One well without compound, and one well with media alone were included in each row. Parasites grown in HMI11 were inoculated (100 μl of 4×10^4/ml) in all wells (except the well with ¿media alone¿) giving a final concentration of parasites of 2×10^4/ml. The plates were incubated for 66 hours at 37° C. in the incubator with 5% CO2. 20 μl resazurin (Sigma, 0.125 mg/ml in Hanks Balanced Salt Solution) was added to all wells and the plate was further incubated for 6 hours. Change in color of resazurin (blue to pink) by living cells was measured with a 96 well plate reader (excitation at 530 nm, emission at 585 nm, filter cut-off: 570 nm). Percent inhibition values were calculated by setting the well without compound to ¿0% inhibition¿.
As usually defined, the IC50 is the midpoint of a concentration-inhibition curve. Turning to `COc1ccc(CN2CCc3nn4c(c3C2)C(=O)N(Cc2cccc3ccccc23)CC4)c2ccccc12`, the IC50 was 4.28 µM. To `COc1ccc(CN2CCc3c(c(C(=O)NCc4cccc5ccccc45)nn3CCN3CCOCC3)C2)c2ccccc12` belongs 0.99 µM. To `Cc1ccccc1-c1ccc(CN2CCc3c(c(C(=O)NCc4ccccc4)nn3CCO)C2)cc1` belongs 2.76 µM; to `NCCn1nc(C(=O)NCc2cccc3ccccc23)c2c1CCN(Cc1ccc(Cl)cc1)C2`, 0.98 µM. With `O=C(NCc1ccccc1)c1nn(CCO)c2c1CN(Cc1cccn1-c1ccccn1)CC2` the figure was 10.4 µM; with `O=C(NCc1cccc2ccccc12)c1nn(CCO)c2c1CN(CCc1ccccc1)CC2`, 27 µM. As for `COc1ccc(CN2CCc3c(c(C(=O)NCc4cccc5ccccc45)nn3CCNC(=N)N)C2)c2ccccc12`, the IC50 is 0.22 µM. In the case of `CCCc1ccc(CN2CCc3c(c(C(=O)NCc4cccc5ccccc45)nn3CCO)C2)cc1`, the half-inhibitory concentration (IC50) was 4.35 µM.

Turning to `COc1ccc(CN2CCc3[nH]nc(C(=O)NCc4cccc5ccccc45)c3C2)c2ccccc12`, the IC50 was 1.11 µM. To `O=C(NCc1cccc2ccccc12)c1nn(CCO)c2c1CN(Cc1cccc3c1OCO3)CC2` belongs 15.9 µM; to `O=C(NCc1ccccc1)c1nn(CCO)c2c1CN(Cc1cc3ccccc3c3ccccc13)CC2`, 3.36 µM; to `Cn1nc(C(=O)NCc2ccccc2)c2c1CCN(Cc1c[nH]c3cc(OCc4ccccc4)ccc13)C2`, 1.7 µM. With `COc1ccc(CN2CCc3c(c(C(=O)NCc4cccc5ccccc45)nn3CCN)C2)c2c1CCCC2` the figure was 0.57 µM; with `CC(NC(=O)c1nn(CCO)c2c1CN(C(=O)c1ncc3sccn13)CC2)c1ccccc1` (stereo not drawn), 50.5 µM; with `CC(NC(=O)c1nn(CCO)c2c1CN(CC1Cc3ccccc3CN1C)CC2)c1ccccc1` (stereo not drawn), 13.5 µM. With `COc1ccc(CN2CCc3c(c(C(=O)NCc4cccc5ccccc45)nn3-c3ccccc3)C2)c2ccccc12` the figure was 0.24 µM.

Regarding `Cc1ccc(CCN2CCc3c(c(C(=O)NCc4cccc5ccccc45)nn3CCO)C2)cc1`, the IC50 was 114 µM. For `Cn1nc(C(=O)NCc2ccccc2)c2c1CCN(Cc1ccc(-c3ccccc3)cc1)C2`, the IC50 is 4.08 µM. `O=C(NCc1ccccc1)c1nn(CCO)c2c1CN(CC(c1ccccc1)c1ccccc1)CC2`: the IC50 was 5.32 µM.

`CC(NC(=O)c1nn(CCO)c2c1CN(Cc1ccc3ccoc3c1)CC2)c1ccccc1` (stereo not drawn): the IC50 is 16.2 µM. To `O=C(NCc1ccccc1)c1nn(CCO)c2c1CN(Cc1cnn(-c3ccccc3)c1)CC2` belongs 12.7 µM; to `O=C(NCc1cccc2ccccc12)c1nn(CCO)c2c1CN(Cc1c[nH]c3c(C(=O)O)cccc13)CC2`, 42.6 µM.

Regarding `O=C(c1nn(Cc2ccccn2)c2c1CN(Cc1ccccc1)CC2)N1CCc2ccccc2C1`, the IC50 was 9.47 µM. As for `COc1ccc(CN2CCc3c(c(C(=O)NCc4cccc5ccccc45)nn3Cc3ccccc3)C2)c2ccccc12`, the IC50 is 3.41 µM. With `COc1ccc(CN2CCc3nn(CCO)c(C(=O)NCc4cccc5ccccc45)c3C2)c2ccccc12` the figure was 23.9 µM; with `COc1ccc(CN2CCc3c(c(C(=O)NCc4cccc5ccccc45)nn3C3CCC3)C2)c2ccccc12`, 2 µM. To `Cn1nc(C(=O)NCc2ccc3ccccc3c2)c2c1CCN(Cc1c[nH]c3ccccc13)C2` belongs 2.62 µM; to `CC(=O)c1ccc(CN2CCc3c(c(C(=O)NCc4ccccc4)nn3CCO)C2)cc1`, 22.4 µM; to `O=C(NCc1ccccc1)c1nn(CCO)c2c1CN(Cc1ccc(-c3ccccc3)cc1)CC2`, 5.31 µM. To `CCc1ccc(CN2CCc3c(c(C(=O)NCc4ccccc4)nn3CCO)C2)cc1` belongs 13.6 µM. In the case of `COc1ccc(CN2CCc3c(c(C(=O)NCc4cccc5cccnc45)nn3CCO)C2)c2ccccc12`, the 50% inhibitory concentration (IC50) was 2.96 µM. With `COc1ccc(CN2CCc3c(c(C(=O)NCc4cccc5ccccc45)nn3C3CN(C(=O)C(C)(C)C)C3)C2)c2ccccc12`, the IC50 was 1.09 µM. Regarding `COc1ccc2c(CN3CCc4c(c(C(=O)NCc5cccc6ccccc56)nn4CCO)C3)c[nH]c2c1`, the IC50 is 2.5 µM.

Turning to `CC(NC(=O)c1nn(CCO)c2c1CN(Cc1cccc3c1OCO3)CC2)c1ccccc1` (stereo not drawn), the concentration for half-maximal inhibition (IC50) was 17.6 µM. To `CC(NC(=O)c1nn(CCO)c2c1CN(Cc1cnn(-c3ccccc3)c1)CC2)c1ccccc1` (stereo not drawn) belongs 14.5 µM. With `COc1ccc2[nH]c(CN3CCc4c(c(C(=O)NCc5cccc6ccccc56)nn4CCO)C3)cc2c1` the figure was 7 µM.

As for `COc1ccc(CN2CCc3c(c(C(=O)NCc4cccc5ccccc45)nn3-c3cnccn3)C2)c2ccccc12`, the IC50 was 2.59 µM. `COc1ccc(CN2CCc3c(c(C(=O)NCc4cccc5ccccc45)nn3C3CCCC3)C2)c2ccccc12`: the IC50 was 1.22 µM.

Regarding `NCCn1nc(C(=O)NCc2cccc3ccccc23)c2c1CCN(Cc1ccc(Cl)c(Cl)c1)C2`, the IC50 was 1.27 µM. On to `C=C(C)C1CC=C(CN2CCc3c(c(C(=O)NCc4ccccc4)nn3CCO)C2)CC1` (stereo not drawn), for which the IC50 is 16.9 µM.

Regarding `O=C(NCc1ccccc1)c1nn(CCO)c2c1CN(Cc1cccc(OC(F)F)c1)CC2`, the IC50 was 19.7 µM. For `C=CCn1nc(C(=O)NCc2ccccc2)c2c1CCN(Cc1ccc3ncccc3c1)C2`, the IC50 is 9.57 µM.

As for `Cn1nc(C(=O)NCc2ccccc2)c2c1CCN(Cc1noc3c1CCCC3)C2`, the IC50 is 44.8 µM.

As for `O=C(NCc1cccc2ccccc12)c1nn(CCO)c2c1CN(Cc1ccc(F)c3ccccc13)CC2`, the IC50 is 34 µM.

For the molecule `COc1ccc(CN2CCc3c(c(C(=O)NCc4cccc5ccccc45)nn3CC(O)CN)C2)c2ccccc12` (stereo not drawn), the IC50 is 0.62 µM. For the molecule `O=C(NCc1ccccc1)c1nn(-c2ccccc2)c2c1CN(Cc1c[nH]c3ccccc13)CC2`, the IC50 was 2.27 µM. To `O=C(NCc1cccc2ccccc12)c1nn(CCO)c2c1CN(Cc1cccc3cc[nH]c13)CC2` belongs 4.64 µM. To `Cn1nc(C(=O)NCc2ccccc2)c2c1CCN(Cc1cccc(-c3ccccc3)c1)C2` belongs 4.06 µM. To `O=C(NCc1ccccc1)c1nn(CCO)c2c1CN(CC1=CC(=O)C3C=C(Cl)C=CC3O1)CC2` (stereo not drawn) belongs 35.6 µM. `Cc1nc2sccn2c1CN1CCc2c(c(C(=O)NCc3ccccc3)nn2CCO)C1`: the IC50 was 27.2 µM. To `COc1cc(CN2CCc3c(c(C(=O)NCc4ccccc4)nn3CCO)C2)cc2c1OCO2` belongs 11 µM; to `O=C(CC1CC1)N1CCc2c(c(C(=O)N3CCc4ccccc4C3)nn2Cc2ccccn2)C1`, 55.1 µM; to `COc1ccc(CN2CCc3c(c(C(=O)NCc4cccc5[nH]ccc45)nn3CCO)C2)c2ccccc12`, 1.02 µM.

Take `COC(=O)c1ccc2c(CN3CCc4c(c(C(=O)NCc5cccc6ccccc56)nn4CCO)C3)c[nH]c2c1`: the IC50 was 2.7 µM. Take `O=C(NCc1cccc2ccccc12)c1nn(CCO)c2c1CN(Cc1ccc(-c3ccccc3)cc1)CC2`: the IC50 was 0.88 µM. With `O=C(NCc1ccccc1)c1nn(CCO)c2c1CN(Cc1ccc(OC(F)(F)F)cc1)CC2` the figure was 12.5 µM. For the molecule `O=C(NCc1ccccc1)c1nn(CCO)c2c1CN(Cc1ccc3c(c1)OC=CO3)CC2`, the IC50 was 23.3 µM.

For `Cn1nc(C(=O)NCc2cccc3ccccc23)c2c1CCN(Cc1cccc3ccccc13)C2`, the IC50 is 4.2 µM. With `O=C(NCc1ccccc1)c1nn(CCO)c2c1CN(Cc1ccccc1C(F)(F)F)CC2` the figure was 57.6 µM. With `COc1ccc2cc(CN3CCc4c(c(C(=O)NCc5cccc6ccccc56)nn4CCO)C3)ccc2c1` the figure was 18 µM.

With `O=C(NCc1cccc2ccccc12)c1nn(CCO)c2c1CN(Cc1ccc(C(F)(F)F)cc1)CC2`, the IC50 was 2.99 µM.

`O=C(NCc1cccc2ccccc12)c1nn(CCO)c2c1CN(Cc1cccc(-c3ccccc3)c1)CC2`: the IC50 was 1.5 µM. With `O=C(NCc1ccccc1)c1nn(CCO)c2c1CN(Cc1ccccc1-c1ccco1)CC2` the figure was 6.78 µM; with `O=C(NCc1cccc2ccccc12)c1nn(CCO)c2c1CN(Cc1c[nH]c3cc(OCc4ccccc4)ccc13)CC2`, 9.9 µM; with `COc1ccc(CN2CCc3c(c(C(=O)NCc4cccc(C)c4)nn3CCO)C2)c2ccccc12`, 7.69 µM. With `O=C(NCc1cccc2ccccc12)c1nn(CCO)c2c1CN(Cc1cccc3cccnc13)CC2` the figure was 6.43 µM.

On to `COc1ccc(CN2CCc3c(c(C(=O)NCc4cc(F)cc5ccccc45)nn3CCO)C2)c2ccccc12`, for which the IC50 is 11.1 µM. For the molecule `COC(=O)c1cccc2c(CN3CCc4c(c(C(=O)NCc5ccccc5)nn4CCO)C3)c[nH]c12`, the IC50 is 13.2 µM.

The values are drawn from ChEMBL document CHEMBL5725949, “Pyrazolopyridine derivatives and their use in therapy” (2018).
